Our source for the IC50 values is patent US8772283B2, “Imidazo-oxazine compound or salt thereof” (Taiho Pharmaceutical Co., Ltd., priority 2011, dated 2014).

For test [1], the target named is human AKT1 (Homo sapiens (Human), UniProt P31749). The experiment in a line: AKT1 kinase activity inhibition (TR-FRET, biotinylated Crosstide substrate). It counts as biochemical. As to conditions: preincubation 120 min at 25° C.; ATP 150 μM; Crosstide 500 nM. As to the method: (§1) Preparation of AKT1 and AKT2 and measurement of in vitro inhibitory activity of the above-mentioned compounds against AKT1 and AKT2 kinase activity were carried out with reference to the method disclosed in Biochem. J. Vol. 385, pp 399-408 (2005). In the preparation of AKT1 and AKT2, human AKT1 and AKT2 to which a middle T antigen tag was added were expressed in Sf 9 insect cells, and then AKT1 and AKT2 were prepared following affinity purification and activation by PDK1. The prepared AKT1 and AKT2 were stored at −80° C. until the time of measurement of inhibitory activity of the compounds. In the measurement of inhibitory activity of the compounds, AKT1 or AKT2 and each compound of the present invention were preincubated at 25° C. for 120 minutes in a buffer solution for reaction (15 mM Tris-HCl pH 7.5, 0.01% Tween-20, 2 mM DTT). As a substrate, biotinylated Crosstide (bioton-KGSGSGRPRTSSFAEG), MgCl2, and ATP were added to final concentrations of 500 nM, 10 mM, and 150 μM, respectively, and reactions were carried out at 25° C. for 60 minutes. The reactions were stopped by adding EDTA to a final concentration of 80 mM. Then, a detection liquid in which an Eu-labeled anti-phosphorylation Crosstide antibody (PerkinElmer) and SureLight APC-SA (PerkinElmer) were contained at a final concentration of 0.5 nM and […], respectively, was added, and reactions were carried out at room temperature for 2 hours. Finally, the amount of fluorescence at the time of irradiation of excitation light having a wavelength of 337 nm was measured at dual wavelengths of 620 nm and 665 nm by PHERAstar FS (BMG LABTECH). The amount of phosphorylation was determined from the ratio of the fluorescence amounts at the dual wavelengths. The compound concentration at which phosphorylation can be inhibited by 50% was defined as […] (nM), and the results are shown in Table 4 below.
In general terms: Time-resolved FRET reads energy transfer from a long-lived donor to a nearby acceptor.

The target in test [2] is human AKT2 (Homo sapiens (Human), UniProt P31751). The experiment in a line: AKT2 kinase activity inhibition (TR-FRET, biotinylated Crosstide substrate). As to conditions: preincubation 120 min at 25° C.; ATP 150 μM; Crosstide 500 nM. It counts as biochemical. The procedure: as §1
human AKT2, sequence (P31751 whole entry): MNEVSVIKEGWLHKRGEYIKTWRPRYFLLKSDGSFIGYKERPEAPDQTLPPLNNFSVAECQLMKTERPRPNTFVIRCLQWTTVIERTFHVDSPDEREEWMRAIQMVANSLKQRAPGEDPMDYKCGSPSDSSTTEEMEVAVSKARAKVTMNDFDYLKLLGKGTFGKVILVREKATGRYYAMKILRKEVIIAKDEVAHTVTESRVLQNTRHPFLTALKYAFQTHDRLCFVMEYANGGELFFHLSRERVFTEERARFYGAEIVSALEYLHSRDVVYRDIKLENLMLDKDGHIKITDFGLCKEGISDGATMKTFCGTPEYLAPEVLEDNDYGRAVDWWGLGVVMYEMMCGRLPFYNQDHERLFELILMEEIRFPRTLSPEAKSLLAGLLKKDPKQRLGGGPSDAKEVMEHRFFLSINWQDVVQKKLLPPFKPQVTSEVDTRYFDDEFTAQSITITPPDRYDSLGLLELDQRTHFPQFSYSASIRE

human AKT1, sequence (P31749 whole entry): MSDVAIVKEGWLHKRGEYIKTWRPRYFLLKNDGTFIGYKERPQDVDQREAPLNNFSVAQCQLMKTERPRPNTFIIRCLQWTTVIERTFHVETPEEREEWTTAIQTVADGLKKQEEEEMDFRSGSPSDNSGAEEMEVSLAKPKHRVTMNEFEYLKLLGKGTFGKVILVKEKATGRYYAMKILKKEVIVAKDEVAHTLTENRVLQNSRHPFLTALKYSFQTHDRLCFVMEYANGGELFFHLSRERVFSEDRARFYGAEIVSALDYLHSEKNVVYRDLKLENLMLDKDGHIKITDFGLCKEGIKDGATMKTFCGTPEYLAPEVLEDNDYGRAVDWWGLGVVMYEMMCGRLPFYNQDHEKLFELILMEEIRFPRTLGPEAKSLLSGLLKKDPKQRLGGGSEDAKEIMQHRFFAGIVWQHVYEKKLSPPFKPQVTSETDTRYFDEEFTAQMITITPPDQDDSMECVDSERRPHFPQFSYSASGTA

A word on the IC50: it is the concentration that gives 50% inhibition. A low value points to greater potency. Consider `CC1(O)CC(N)(c2ccc(-c3nc4n(c3-c3ccccc3)COc3cccc(F)c3-4)cc2)C1` (stereo not drawn) [Example 2, trans-3-amino-3-(4-(10-fluoro-3-phenyl-5H-benzo[e]imidazo[1,2-c][1,3]oxazin-2-yl)phenyl)-1-methylcyclobutanol], for which the IC50 in test [1] was 4.6 nM; in test [2] it was 0.5 nM.
For `NC1(c2ccc(-c3nc4n(c3-c3ccccc3)COc3cccc(F)c3-4)cc2)CCC1` [Example 3, 1-(4-(10-fluoro-3-phenyl-5H-benzo[e]imidazo[1,2-c][1, 3]oxazin-2-yl)phenyl)cyclobutanamine], the figures for the IC50 in test [1] and in test [2] were 16 nM and 1.2 nM, respectively.
For `NC1(c2ccc(-c3nc4n(c3-c3ccsc3)COc3cccc(F)c3-4)cc2)CC(O)(C2CC2)C1` (stereo not drawn) [Example 4, trans-3-amino-1-cyclopropyl-3-(4-(10-fluoro-3-(thiophen-3-yl)-5H-benzo[e]imidazo[1,2-c][1,3]oxazin-2-yl)phenyl)cyclobutanol], in that order: 7.1 nM and 0.71 nM.
With `CC1(O)CC(N)(c2ccc(-c3nc4n(c3-c3ccsc3)COc3cccc(F)c3-4)cc2)C1` (stereo not drawn) [Example 6, trans-3-amino-3-(4-(10-fluoro-3-(thiophen-3-yl)-5H-benzo[e]imidazo[1,2-c][1,3]oxazin-2-yl)phenyl)-1-methylcyclobutanol], the figures for the half-inhibitory concentration (IC50) in test [1] and in test [2] were 9.8 nM and 0.91 nM, respectively.
Turning to `CC1(O)CC(N)(c2ccc(-c3nc4n(c3-c3ccncc3)COc3cccc(F)c3-4)cc2)C1` (stereo not drawn) [Example 7, trans-3-amino-3-(4-(10-fluoro-3-(pyridin-4-yl)-5H-benzo[e]imidazo[1,2-c][1,3]oxazin-2-yl)phenyl)-1-methylcyclobutanol], the values for the IC50 in test [1] and in test [2] were 25 nM and 1.1 nM, respectively.
`CC1(O)CC(N)(c2ccc(-c3nc4n(c3-c3ccccc3)COc3ccc(F)cc3-4)cc2)C1` (stereo not drawn) [Example 8, trans-3-amino-3-(4-(9-fluoro-3-phenyl-5H-benzo[e]imidazo[1,2-c][1,3]oxazin-2-yl)phenyl)-1-methylcyclobutanol]: the IC50 was 6.4 nM in test [1] and 1 nM in test [2].
Take `C[C@]1(O)C[C@@](N)(c2ccc(-c3nc4n(c3-c3ccccc3)COc3cc(F)ccc3-4)cc2)C1` [Example 9, trans-3-amino-3-(4-(8-fluoro-3-phenyl-5H-benzo[e]imidazo[1,2-c][1,3]oxazin-2-yl)phenyl)-1-methylcyclobutanol]: the results for the IC50 in test [1] and in test [2] were 8.5 nM and 2 nM, respectively.
As to `NC1(c2ccc(-c3nc4n(c3-c3ccccc3)COc3c(F)cccc3-4)cc2)CC(O)(C2CC2)C1` (stereo not drawn) [Example 10, trans-3-amino-1-cyclopropyl-3-(4-(7-fluoro-3-phenyl-5H-benzo[e]imidazo[1,2-c][1,3]oxazin-2-yl)phenyl)cyclobutanol], the IC50 in test [1] turned out to be 2.3 nM; in test [2], 1.4 nM.
Turning to `C[C@]1(O)C[C@@](N)(c2ccc(-c3nc4n(c3-c3ccccc3)COc3ccccc3-4)cc2)C1` [Example 12, trans-3-amino-1-methyl-3-(4-(3-phenyl-5H-benzo[e]imidazo[1,2-c][1,3]oxazin-2-yl)phenyl)cyclobutanol], the 50% inhibitory concentration (IC50) in test [1] came to 5.3 nM; in test [2], 1.7 nM.
In the same order, the values of `NC1(c2ccc(-c3nc4n(c3-c3ccccc3)COc3ccccc3-4)cc2)CCC1` [Example 13, 1-(4-(3-phenyl-5H-benzo[e]imidazo[1,2-c][1,3]oxazin-2-yl)phenyl)cyclobutanamine] are 13 nM and 2.8 nM.
For `NC1(c2ccc(-c3nc4n(c3-c3ccsc3)COc3ccccc3-4)cc2)CCC1` [Example 14, 1-(4-(3-(thiophen-3-yl)-5H-benzo[e]imidazo[1,2-c][1,3]oxazin-2-yl)phenyl)cyclobutanamine], in that order: 27 nM and 5.4 nM.
With `NC1(c2ccc(-c3nc4n(c3-c3ccncc3)COc3ccccc3-4)cc2)CCC1` [Example 15, 1-(4-(3-(pyridin-4-yl)-5H-benzo[e]imidazo[1,2-c][1,3]oxazin-2-yl)phenyl)cyclobutanamine], the IC50 was found to be 51 nM in test [1] and 6.5 nM in test [2].
Regarding `COc1cccc2c1OCn1c-2nc(-c2ccc([C@]3(N)C[C@@](O)(C4CC4)C3)cc2)c1-c1ccccc1` [Example 19, trans-3-amino-1-cyclopropyl-3-(4-(7-methoxy-3-phenyl-5H-benzo[e]imidazo[1,2-c][1,3]oxazin-2-yl)phenyl)cyclobutanol], the IC50 is 16 nM in test [1] and 2 nM in test [2].
For `COc1ccc2c(c1)-c1nc(-c3ccc(C4(N)CC(C)(O)C4)cc3)c(-c3ccccc3)n1CO2` (stereo not drawn) [Example 20, trans-3-amino-3-(4-(9-methoxy-3-phenyl-5H-benzo[e]imidazo[1,2-c][1,3]oxazin-2-yl)phenyl)-1-methylcyclobutanol], in that order: 2.9 nM and 0.75 nM.
Turning to `COc1ccc2c(c1)OCn1c-2nc(-c2ccc(C3(N)CC(C)(O)C3)cc2)c1-c1ccccc1` (stereo not drawn) [Example 21, trans-3-amino-3-(4-(8-methoxy-3-phenyl-5H-benzo[e]imidazo[1,2-c][1,3]oxazin-2-yl)phenyl)-1-methylcyclobutanol], the IC50 was found to be 6 nM in test [1] and 0.91 nM in test [2].
With `NC1(c2ccc(-c3nc4n(c3-c3ccccc3)COc3cccc(Cl)c3-4)cc2)CC(O)(C2CC2)C1` (stereo not drawn) [Example 22, trans-3-amino-3-(4-(10-chloro-3-phenyl-5H-benzo[e]imidazo[1,2-c][1,3]oxazin-2-yl)phenyl)-1-cyclopropylcyclobutanol], the values for the IC50 in test [1] and in test [2] were 8.2 nM and 0.3 nM, respectively.
In the same order, the values of `CCOc1cccc2c1-c1nc(-c3ccc(C4(N)CC(O)(C5CC5)C4)cc3)c(-c3ccccc3)n1CO2` (stereo not drawn) [Example 23, trans-3-amino-1-cyclopropyl-3-(4-(10-ethoxy-3-phenyl-5H-benzo[e]imidazo[1,2-c][1,3]oxazin-2-yl)phenyl)cyclobutanol] are 28 nM and 1.7 nM.
For the molecule `CCOc1cccc2c1-c1nc(-c3ccc(C4(N)CC(C)(O)C4)cc3)c(-c3ccccc3)n1CO2` (stereo not drawn) [Example 24, trans-3-amino-3-(4-(10-ethoxy-3-phenyl-5H-benzo[e]imidazo[1,2-c][1,3]oxazin-2-yl)phenyl)-1-methylcyclobutanol], the values for the IC50 in test [1] and in test [2] were 30 nM and 1.8 nM, respectively.
For `COc1cc(OC)c2c(c1)OCn1c-2nc(-c2ccc(C3(N)CC(O)(C4CC4)C3)cc2)c1-c1ccccc1` (stereo not drawn) [Example 25, trans-3-amino-1-cyclopropyl-3-(4-(8,10-dimethoxy-3-phenyl-5H-benzo[e]imidazo[1,2-c][1,3]oxazin-2-yl)phenyl)cyclobutanol], in that order: 12 nM and 0.27 nM.
For `Cc1cccc2c1OCn1c-2nc(-c2ccc([C@]3(N)C[C@@](O)(C4CC4)C3)cc2)c1-c1ccccc1` [Example 26, trans-3-amino-1-cyclopropyl-3-(4-(7-methyl-3-phenyl-5H-benzo[e]imidazo[1,2-c][1,3]oxazin-2-yl)phenyl)cyclobutanol], in that order: 26 nM and 1.5 nM.
In the case of `NC1(c2ccc(-c3nc4n(c3-c3ccccc3)COc3cccnc3-4)cc2)CCC1` [Example 29, 1-(4-(3-phenyl-5H-imidazo[1,2-c]pyrido[2,3-e][1,3]oxazin-2-yl)phenyl)cyclobutanamine], the IC50 came out at 35 nM in test [1] and 4 nM in test [2].
For `NC1(c2ccc(-c3nc4n(c3-c3ccccc3)COc3ccncc3-4)cc2)CCC1` [Example 33, 1-(4-(3-phenyl-5H-imidazo[1,2-c]pyrido[3,4-e][1,3]oxazin-2-yl)phenyl)cyclobutanamine], the IC50 stood at 14 nM in test [1] and 1.7 nM in test [2].
`CC[C@]1(O)C[C@@](N)(c2ccc(-c3nc4n(c3-c3ccccc3)COc3ccncc3-4)cc2)C1` [Example 34, trans-3-amino-1-ethyl-3-(4-(3-phenyl-5H-imidazo[1,2-c]pyrido[3,4-e][1,3]oxazin-2-yl)phenyl)cyclobutanol]: the IC50 in test [1] is 12 nM; in test [2], 2.1 nM.
Take `NC1(c2ccc(-c3nc4n(c3-c3ccccc3)COc3cnccc3-4)cc2)CCC1` [Example 37, 1-(4-(3-phenyl-5H-imidazo[1,2-c]pyrido[4,3-e][1,3]oxazin-2-yl)phenyl)cyclobutanamine]: the IC50 worked out at 5.5 nM in test [1] and 1.1 nM in test [2].
In the same order, the values of `CC1(O)CC(N)(c2ccc(-c3nc4n(c3-c3ccccc3)COc3ncccc3-4)cc2)C1` (stereo not drawn) [Example 39, trans-3-amino-1-methyl-3-(4-(3-phenyl-5H-imidazo[1,2-c]pyrido[3,2-e][1,3]oxazin-2-yl)phenyl)cyclobutanol] are 1.4 nM and 0.97 nM.
